Laboratory results as given in US4156731A, “Heterocyclic oxime compounds and carbamoyloxime derivatives” (priority 1976, dated 1979).

Experiments:
Type in all cases: in vivo
Set-up in all cases: key: A: Excellent control; B: Partial control; C: No control
[1] = tested on: bean aphid (Aphis fabae Scop.); assay: Bean Aphid Foliage Spray Test; conditions: 500 ppm foliage spray, 24 hour holding period
Procedure: (§1) Selected species of the new compounds were evaluated to determine their pesticidal activity against mites and certain insects, including anaphid, a caterpillar, a beetle and a fly.
(§2) Suspensions of the test compounds were prepared by dissolving one gram of compound in 50 milliliters of acetone in which had been dissolved 0.1 gram (10 percent of the weight of compound) of an alkylphenoxy polyethoxyethanol surfactant, as an emulsifying or dispersing agent. The resulting solution was mixed into 150 milliliters of water to give roughly 200 milliliters of a suspension containing the compound in finely divided form. The thus-prepared stock suspension contained 0.5 percent by weight of test compound. The test concentrations in parts per million by weight employed in the tests described hereinbelow were obtained by appropriate dilutions of the stock suspension with water. The test procedures were as follows:
Bean Aphid Foliage Spray Test
Adults and nymphal stages of the bean aphid (Aphis fabae Scop.) reared on potted dwarf nasturtium plants at 65°-70° F. and 50-70 per cent relative humidity, constituted the test insects. For testing purposes, the number of aphids per pot was standardized to 100-150 by trimming plants containing excess aphids.
The test compounds were formulated by diluting the stock suspension with water to give a suspension containing 500 parts of test compound per million parts of final formulation.
The potted plants (one pot per compound tested) infested with 100-150 aphids, were placed on a revolving turntable and sprayed with 100-110 milliliters of test compound formulation by use of a DeVilbiss spray gun set at 40 psig. air pressure. This application, which lasted 25 seconds, was sufficient to wet the plants to run-off. As a control, 100-110 milliliters of a water-acetone-emulsifier solution containing no test compound were also sprayed on infested plants. After spraying, the pots were placed on their sides on a sheet of white standard mimeograph paper which had been previously ruled to facilitate counting. Temperature and humidity in the test room during the 24 hour holding period were 65°-70° F. and 50-70 per cent, respectively. Aphids which fell into the paper and were unable to remain standing after being uprighted were considered dead. Aphids remaining on the plants wre observed closely for movement and those which were unable to move the length of the body upon stimulator by prodding were considered dead. Per cent mortality was recorded for various concentration levels.
(§3) In these tests the pesticidal activity of the compounds against aphid, mite, Southern Armyworm, Mexican Bean Beetle, and house fly was rated as follows: […]

[2] = tested on: two spotted mite (Tetranychus urticae Koch); assay: Mite Foliage Spray Test; conditions: 500 ppm foliage spray, six days
Procedure: as §1, §2
Adults and nymphal stages of the two spotted mite (Tetranychus urticae Koch), reared on Tendergreen bean plants at 80±5 per cent relative humidity, were the test organisms. Infested leaves from a stock culture were placed on the primary leaves of two bean plants six to eight inches in height, growing in a two-and-a-half inch clay pot. 150-200 mites, a sufficient number for testing, transferred from the excised leaves to the fresh plants in a period of twenty four hours. Following the twenty four hour transfer period, the excised leaves were removed from the infested plants. The test compounds were formulated by diluting the stock suspension with water to give a suspension with water to give a suspension containing 500 parts of test compound per million parts of final formulation. The potted plants (one pot per compound) were placed on a revolving turntable and sprayed with 100-110 milliliters of test compound formulation by use of a DeVilbiss spray gun set at 40 psig. air pressure. This application, which lasted for 25 seconds, was sufficient to wet the plants to run-off. As a control, 100-110 milliliters of a water solution containing acetone and emulsifier in the same concentrations as the test compound formulation, but containing no test compound, were also sprayed on infested plants. The sprayed plants were held at 80±5 per cent relative humidity for six days, after which a mortality count of motile forms were made. Microscopic examination for motile forms was made on the leaves of the test plants. Any individual which was capable of locomotion upon prodding, was considered living.
as §3

[3] = tested on: southern armyworm (Prodenia Eridania, (Cram.)); assay: Southern Armyworm Leaf Spray Test; conditions: larvae, 500 ppm leaf spray, three days
Procedure: as §1, §2
Southern Armyworm Leaf Spray Test
Larvae of the southern armyworm (Prodenia Eridania, (Cram.), reared on Tendergreen bean plants at a temperature of 80°±5° F. and a relative humidity of 50±5 per cent, constituted the test insects.
The test compounds were formulated by diluting the stock suspension with water to give a suspension containing 500 parts of test compound per million parts of final formulation. Potted Tendergreen bean plants of standard height and age were placed on a revolving turntable and sprayed with […] of test compound formulation by use of a DeVilbiss spray gun set at 10 psig. air pressure.
This application, which lasted 25 seconds, was sufficient to wet plants to run-off. As a control, 100-110 milliliters of a water-acetone-emulsifier solution containing no test compound were also sprayed on infested plants. When dry, the paired leaves were separated and each one was placed in a 9 centimeter Petric dish lined with moistened filter paper. Five randomly selected larvae were introduced into each dish and the dishes were closed. The closed dishes were labeled and held at 80°-85° F. for three days. Although the larvae could easily consume the whole leaf within twenty-four hours, no more food was added. Larvae which were unable to move the length of the body, even upon stimulation by prodding, were considered dead. Per cent mortality was recorded for various concentration levels.
as §3

[4] = tested on: Mexican bean beetle (Epilachna varivestis, Muls.); assay: Mexican Bean Beetle Leaf Spray Test; conditions: fourth instar larvae, 500 ppm leaf spray, three days
Procedure: as §1, §2
Mexican Bean Beetle Leaf Spray Test
Fourth instar larvae of the Mexican bean beetle (Epilachna varivestis, Muls.), reared on Tendergreen bean plants at a temperature of 80°±5° F. and 50±5 per cent relative humidity, were the test insects.
The test compounds were formulated by diluting the stock suspension with water to give a suspension containing 500 parts of test compound per million parts of final formulation. Potted Tendergreen bean plants of standard height and age were placed on a revolving turntable and sprayed with 100-110 milliliters of test compound formulation by use of DeVilbiss spray gun set at 10 psig air pressure. This application, which lasted 25 seconds, was sufficient to wet plants to run-off. As a control, 100-110 milliliters of a water-acetone-emulsifier solution containing no test compound were also sprayed on infested plants. When dry, the paired leaves were separated and each was placed in a 9 centimeter Petri dish lined with moistened filter paper. Five randomly selected larvae were introduced into each dish, and the dishes were closed. The closed dishes were labeled and held at a temperature of […]. for three days. Although the larvae could easily consume the leaf within 24 to 48 hours, no more food was added. Larvae which were unable to move the length of the body, even upon stimulation, were considered dead.
as §3

[5] = tested on: house flies (Musca domestica, L.); assay: Fly Bait Test; conditions: adults, 500 ppm in sugar bait, twenty four hours
Procedure: as §1, §2
Four to six day old adult house flies (Musca domestica, L.) reared according to the specifications of the Chemical Specialities Manufacturing Association (Blue Book, McNair-Dorland Co., NY., 1954; pages 234-244, 261) under controlled conditions of 80°±5° F. and 50±5 per cent relative humidity, were the test insects. The flies were immobilized by anesthetizing with carbon dioxide and twenty five immobilized individuals, males and females, were transferred to a cage consisting of a standard food stainer about five inches in diameter which was inverted over a wrapping-paper-covered surface. The test compounds were formulated by diluting the stock suspension with a 10 per cent (by weight) sugar solution to give a suspension containing 500 parts of test compound per million parts of final formulation, by weight. Ten milliliters of the test formulation were added to a souffle cup containing a one inch square of an absorbent cotton pad. This bait cup was introduced and centered on the blotting paper under the food strainer prior to admitting the anesthetized flies. The caged flies were allowed to feed on the bait for twenty four hours, at a temperature of 80°±5° F. and the relative humidity of 50±5 per cent.
as §3

| SMILES | Bean Aphid pesticidal activity rating [1] | Mite pesticidal activity rating [2] | Southern Armyworm pesticidal activity rating [3] | Mexican Bean Beetle pesticidal activity rating [4] | House-Fly pesticidal activity rating [5] |
| --- | --- | --- | --- | --- | --- |
| CN(SC(Cl)(Cl)Cl)C(=O)ON=C1SC(=NC(C)(C)C)SC1(C)C [LI] | A | B | C | A | A |
| CC(C)C(=O)C(C)(C)SSN(C)C(=O)ON=C1SC(=C(C#N)C#N)SC1(C)C [LXXV] | A | A | B | B | C |
| CN=C1SC(=NOC(=O)NC)C(C)(C)S1 [XL, 5,5-Dimethyl-2-methylimino-4-[O-(N-methylcarbamoyl)oximino]-1,3-dithiolane] | A | A | B | A | A |
| CN(SC(Cl)(Cl)Cl)C(=O)ON=C1SC(=NC#N)SC1(C)C [LXX] | C | C | C | C | C |
| CN(Sc1ccc(C(C)(C)C)cc1)C(=O)ON=C1SC(=C(C#N)C#N)SC1(C)C [LXXIII] | A | B | C | A | C |
| CNC(=O)ON=C1SC(=C(C#N)c2ccccc2)SC1(C)C [LXVI] | C | C | C | B | C |
| CNC(=O)ON=C1CSC(=CC(C)=O)S1 [LXXVI] | C | C | C | B | A |
| CN=C1SC(=NOC(=O)N(C)SN(C)C(=O)ON=C2SC(=NC)SC2(C)C)C(C)(C)S1 [LXXVIII] | A | A | A | A | A |
| CN(SSC(C)(C)C)C(=O)ON=C1SC(=C(C#N)C#N)SC1(C)C [LXIV] | A | C | B | A | B |
| CCCCN=C1SC(=NOC(=O)N(C)SC(Cl)(Cl)Cl)C(C)(C)S1 [LIII] | A | A | C | A | A |
| CNC(=O)ON=C1SC(=CC(C)=O)SC1(C)C [LXVIII] | A | C | A | A | A |
| CC(C)N=C1SC(=NOC(=O)N(C)SSC(C)(C)C)C(C)(C)S1 [XLIX] | A | A | C | A | A |
| CN(SC(Cl)(Cl)Cl)C(=O)ON=C1SC(=NS(C)(=O)=O)SC1(C)C [LVIII] | C | C | C | B | B |
| CCOC(=O)C(C#N)=C1SC(=NOC(=O)N(C)SC(Cl)(Cl)Cl)C(C)(C)S1 [LXV] | B | C | C | A | A |
| CN(SN(C)C(=O)ON=C1SC(=C(C#N)C#N)SC1(C)C)C(=O)ON=C1SC(=C(C#N)C#N)SC1(C)C [LXXVII] | C | C | C | A | C |
| CN(C)C(=O)ON=C1SC(=C(C#N)C#N)SC1(C)C [XLIII, 5,5-Dimethyl-2-(dicyanomethylidene)-4-[O-(N,N-dimethylcarbamoyl)oximino]-1,3-dithiolane] | B | C | C | B | B |
| CCOC(=O)C(C#N)=C1SC(=NOC(=O)NC)C(C)(C)S1 [LXI] | C | C | C | A | C |
